This data set in a line: Stability test of the crystal. The class given is physicochemical. The following applies: crystal containing 1/3 isopropanol.

Structures are written as SMILES.

This is an account of results in patent publication US6468995B1, “Cephem compounds” (Fujisawa Pharmaceutical Co., Ltd., priority 1993, dated 2002).

For `Nc1nc(/C(=N/O)C(=O)N[C@@H]2C(=O)N3C(C(=O)O)=C(SCc4cn[nH]c4)CS[C@H]23)cs1` [Example 37, 7β-[2-(2-aminothiazol-4-yl)-2-(Z)-(hydroxyimino)acetamido]-3-[(pyrazol-4-yl)methylthio]-3-cephem-4-carboxylic acid containing 1/3 isopropanol], the “stability in the stability test” value is “stable”.
